The test system of test [1] is SMN protein. Briefly: Western blot of total cellular SMN protein in SMA type I fibroblasts. Format: cell-based, human. As to conditions: 48 hours, 3813 cells. How it is done:
Western blots were performed using standard methods. SMA type I fibroblasts (3813 cells; Coriell Cell Repositories) were treated with compounds for 48 hours. Monoclonal SMN anti-SMN antibody 4B7 (Wolstencroft et al., Hum Mil Genet, 14:1199-1210 (2005)) was used to identify SMN protein. Tubulin was used as an internal normalization standard. DMSO treatment serves as the negative control.

Test [2] relates to SMN2-linked luciferase-reporter gene construct. Put plainly: SMN Splice Reporter Assay (SMN2-linked luciferase reporter). Format: cell-based. As to conditions: for EC50: cervical carcinoma cell lines, SMN2 splice luciferase reporter; for Fold Increase: fold-increase of luciferase over baseline reading of transformed cells without any test compound. An outline of the steps:
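Cervical carcinoma cells carrying an SMN2-luciferase splicing reporter, in-frame only with exon 7 inclusion, were treated with compound. Luciferase activity reported as fold increase over untreated transformed cells, with EC50 derived.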
(In general: A reporter such as luciferase makes a cellular process visible.)

Test [3] has as its system translational stop codon read-through, human SMN2 open reading frame-luciferase. Briefly: Translational read-through luciferase reporter assay (luciferase preceded by the open reading frame of the human SMN2 gene). Format: cell-based. From the text: This assay was similar in design to that described in WO 01/44516 A2. This was a cell-based luciferase reporter assay designed to detect translational read-through via insertion of a translational stop codon within the coding sequence that includes luciferase. In the presence of compounds that promote read-through of translational stop codons, active luciferase was produced and detected via chemiluminescence. Compounds of the invention typically were active in three versions of this assay: luciferase reporter containing a UGA stop codon, luciferase reporter containing a UAG stop codon, which is the first stop codon downstream of the improper splice junction between exons 6 and 8 in the human SMN2 transcript, and luciferase preceded by the open reading frame of the human SMN2 gene.

The test system of test [4] is SMN-containing gems in type 1 SMA patient fibroblasts (3813 cells). Briefly: SMN-containing gem count in SMA patient fibroblasts. Format: cell-based, human. As to conditions: 48 hours, 3813 fibroblasts. An excerpt: SMN protein can be found in punctate nuclear particles called “gems” (Liu and Dreyfuss, EMBO J, 15 (14): 3555-3565 (1996)). In fibroblast cells derived from SMA patients, the number of gems corresponds to disease severity as follows: severe type 1 patients have approximately 5 gems per 100 nuclei; mild type 3 patients have 20-50 gems per 100 nuclei; normal individuals have approximately 100-150 gems per 100 nuclei (Coovert et al., Hum Mol Genet, 6 (8): 1205-1214 (1997), Young et al., Exp Cell Res, 265 (2): 252-261 (2001)).
Gems are detectable by immunohistochemistry and gem counts in patient fibroblasts have been used to test the ability of compounds to increase SMN protein levels (Mattis et al., Hum Genet, 120: 589-601 (2006)). Following these methods, fibroblast cells from a type 1 SMA patient (3813 cells, Coriell Cell Repositories) were treated for 48 hours with a compound of the invention. The cells were then fixed and incubated with a monoclonal antibody against SMN (4B7, Wolstencroft et al., Hum Mol Genet, 14: 1199-1210 (2005)). A FITC-conjugated anti-mouse secondary antibody was used to visualize the labeled gems. A positive control in these experiments was provided by fibroblasts from the same patient treated with 1000 μM valproic acid.

For the next test, the system named is SMA model mouse fetuses. As to conditions: administered in utero; cited from earlier work.
For test [5], the system named is SMN protein. The note with it: cited from earlier work.

Molecules are shown by their SMILES.

As a reminder, the EC50 is the concentration giving half of the maximal effect. Broadly, the maximal fold induction is the ratio of treated to control signal. On to `COc1ccc2c(c1)C(=O)N(c1ccc3occc3c1)C2` [Example 119047], for which, in the test with SMN protein [1] (0.1 μM), the “SMN:Tubulin ratio as % of Vehicle Control” value (“SMN:Tubulin ratio as %” for short) is 125.19%. Moreover, in test [2], it took 59 nM to reach a half-maximal effect (EC50) and the “Fold Increase” value was 1.456. For the same compound, in test [3], a half-maximal effect (EC50) was put at 4280 nM and the maximal fold induction came to 2.04. The “Average number of gems per 100 nuclei” value in test [4] (0.1 μM compound) turned out to be 32.

Turning to `COc1ccc2c(c1)C(=O)N(c1ccc3ncsc3c1)C2` [Example 120596], the “SMN:Tubulin ratio as %” value in the test with SMN protein [1] (1 μM) is given as 124.41%. In addition, in test [2], it took 126 nM to reach a half-maximal effect (EC50) and the “Fold Increase” value was found to be 1.591. Further, in test [3], the EC50 stood at 1720 nM and the maximal fold induction was 2.23. In addition, the “Average number of gems per 100 nuclei” value in test [4] (0.1 μM compound) is reported as 148.

On to `COc1ccc2c(c1)C(=O)N(c1ccc3cn[nH]c3c1)C2` [Example 120602], for which the “SMN:Tubulin ratio as %” value with SMN protein [1] (1 μM) was determined as 123.67%. Moreover, in test [2], the EC50 stood at 154 nM and the “Fold Increase” value stood at 1.412. Further, in test [3], the concentration for a half-maximal effect (EC50) is 1110 nM and the maximal fold induction turned out to be 2.12. In test [4] (0.1 μM compound), the “Average number of gems per 100 nuclei” value was determined as 68.

In the case of `CC(C)Oc1ccc2c(c1)C(=O)N(c1ccc3ccn(C)c3c1)C2` [Example 124326], the “SMN:Tubulin ratio as %” value in the test on SMN protein [1] (3 μM) stood at 147.687%. For the same compound, in test [2], a half-maximal response (EC50) required 170 nM and the “Fold Increase” value is 1.666. Further, in test [3], the EC50 amounted to 129 nM and the maximal fold induction amounted to 0.946. Also, the “Average number of gems per 100 nuclei” value in test [4] (1 μM compound) is listed as 98.

In the case of `CC(C(=O)O)c1ccc(N2Cc3ccccc3C2=O)cc1` (stereo not shown) [Indoprofen, indoprofen], in the test on SMA model mouse fetuses, the “survival of SMA model mouse fetuses” value is on record as “increase survival”. Also, the luciferase activity result in test [2] (result in words) is given as “increases luciferase activity”. Moreover, the “production of SMN from the endogenous SMN2 gene” value in the test on SMN protein [5] (SMA patient fibroblasts) is “increase in production of SMN”. Besides, the “level of expression of SMN protein” value in the test on SMN protein [5] (cultured cells, Lunn et al. 2004) was “increases the level of expression of SMN protein”.

Values taken from patent US20100267712A1, “ISOINDOLINE COMPOUNDS FOR THE TREATMENT OF SPINAL MUSCULAR ATROPHY AND OTHER USES” (The United States of America, as represented by the …, priority 2007, published 2010).
